What is called IC50 is the concentration needed to halve the response being measured.

One experiment relates to MDA-MB-231. In words: Cytotoxicity against human MDA-MB-231 cells assessed as reduction in cell viability after 24 hrs by MTT assay. It is filed as functional, cell-based. Particulars: MDA-MB-231, 24 h. Background: Formazan colour is commonly taken as a measure of viable cells.
The next experiment concerns HeLa. In words: Cytotoxicity against human HeLa cells assessed as reduction in cell viability after 24 hrs by MTT assay. Format: functional, cell-based.
Experiment [1] deals with A549. In words: Cytotoxicity against human A549 cells assessed as reduction in cell viability after 24 hrs by MTT assay. It is filed as functional, cell-based. Conditions: A549, 24 h.
A further experiment concerns MCF7. In words: Cytotoxicity against human MCF7 cells assessed as reduction in cell viability after 24 hrs by MTT assay. It is filed as functional, cell-based. Conditions: MCF7, 24 h.
The test system of experiment [2] is A549. In words: Induction of cell death in human A549 cells assessed as increase in LC3-2 expression after 24 hrs by Western blot analysis. Format: functional, cell-based.
Experiment [3] concerns A549. In words: Cell cycle arrest in human A549 cells assessed as accumulation at S phase at 4 uM after 24 hrs by propidium iodide staining based flow cytometry (reference value: 8.85%). It is filed as functional. In general terms: In flow cytometry, cells or beads pass a laser one at a time.
In experiment [4] the test system is A549. In words: Inhibition of RAS/MEK/ERK signalling in human A549 cells assessed as decrease in phosphorylated MEK1/2 level at 4 uM after 24 hrs by Western blot analysis. It is filed as cell-based.
Experiment [5] deals with A549. In words: Upregulation of PTEN expression in human A549 cells at 4 uM after 24 hrs by Cy-3 staining based immunoblot analysis. It is filed as functional, cell-based. (In general: In western blotting, separated proteins are transferred to a membrane and probed.)
Experiment [6] relates to A549. In words: Inhibition of PI3K/Akt/mTOR signalling in human A549 cells assessed as downregulation of mTOR expression at 4 uM after 24 hrs by Western blot analysis. Format: cell-based.
Experiment [7] concerns A549. In words: Inhibition of PI3K/Akt/mTOR signalling in human A549 cells assessed as downregulation of Akt expression at 4 uM after 24 hrs by Western blot analysis. Format: cell-based.
The subject of experiment [8] is A549. In words: Cell cycle arrest in human A549 cells assessed as accumulation at subG1 phase at 4 uM after 24 hrs by propidium iodide staining based flow cytometry (reference value: 1.11%). Format: functional.
Experiment [9] concerns A549. In words: Induction of autophagy in human A549 cells assessed as increase in Atg7 expression after 24 hrs by Western blot analysis. It is filed as functional, cell-based.
In experiment [10] the test system is A549. In words: Inhibition of RAS/MEK/ERK signalling in human A549 cells assessed as decrease in phosphorylated ERK1/2 level at 4 uM after 24 hrs by Western blot analysis. Format: cell-based.
Experiment [11] has as its system A549. In words: Cell cycle arrest in human A549 cells assessed as accumulation at G0/G1 phase at 4 uM after 24 hrs by propidium iodide staining based flow cytometry (reference value: 69.5%). Format: functional.
Experiment [12] concerns A549. In words: Inhibition of PI3K/Akt/mTOR signalling in human A549 cells assessed as downregulation of PI3K expression at 4 uM after 24 hrs by Western blot analysis. It is filed as cell-based.
Experiment [13] has as its system A549. In words: Cell cycle arrest in human A549 cells assessed as accumulation at G2/M phase at 4 uM after 24 hrs by propidium iodide staining based flow cytometry (reference value: 21.58%). It is filed as functional.
Experiment [14] relates to A549. In words: Inhibition of PI3K/Akt/mTOR signalling in human A549 cells assessed as reduction in Akt phosphorylation at Ser-473 residue at 4 uM after 24 hrs by Western blot analysis. It is filed as cell-based.
Experiment [15] has as its system A549. In words: Induction of cell death in human A549 cells assessed as LC3-mediated cytoplasmic vacuolation by Hoechst staining based assay. Format: functional.

Active and inactive are the calls of the source. The rule behind the calls is not given here.

In the case of `OC1(C(F)(F)F)CS/C(=N\c2ccccc2)N1C1CC1` (stereo unspecified), the IC50 was 22.7 µM in the experiment with MDA-MB-231, 24.6 µM in the experiment on HeLa, 15.1 µM in the experiment on A549 [1] and 29.2 µM in the experiment on MCF7.
Consider `OC1(C(F)(F)F)CS/C(=N\c2cccc(C(F)(F)F)c2)N1c1cccc(C(F)(F)F)c1` (stereo unspecified), for which the outcome with A549 [2], in the experiment with A549 [5], with A549 [9] and with A549 [15] was Active. For the same molecule, the Activity came out at 1.71% in the experiment on A549 [3], 3.81% in the experiment with A549 [8], 86.61% in the experiment on A549 [11] and 8.15% in the experiment on A549 [13]. Moreover, the IC50 in the experiment on MDA-MB-231 turned out to be 3.32 µM; with HeLa it was 3.57 µM; with A549 [1] it was 2.84 µM; with MCF7 it was 6.69 µM. Also, the inhibition entry in the experiment with A549 [4], in the experiment with A549 [6], in the experiment with A549 [7], with A549 [10], in the experiment with A549 [12] and in the experiment on A549 [14] was “Active” each time.
On to `CCCN1/C(=N/c2ccccc2)SCC1(O)C(F)(F)F` (stereo unspecified), for which the half-maximal inhibitory concentration (IC50) with MDA-MB-231 was 18.7 µM; with HeLa, 24.4 µM; with A549 [1], 14.3 µM; in the experiment on MCF7, 22.5 µM.
Turning to `OC1(C(F)(F)F)CS/C(=N\c2ccc(Cl)c(C(F)(F)F)c2)N1Cc1ccco1` (stereo unspecified), the result with A549 [2], in the experiment on A549 [5], in the experiment on A549 [9] and in the experiment with A549 [15] was Active. In addition, the Activity in the experiment with A549 [3] was 4.11%; in the experiment on A549 [8] it was 4.99%; in the experiment with A549 [11] it was 79.77%; with A549 [13] it was 11.8%. The concentration for half-maximal inhibition (IC50) in the experiment on MDA-MB-231 amounted to 5.12 µM; with HeLa, 5.84 µM; with A549 [1] it was 3.82 µM; in the experiment with MCF7, 15.1 µM. The inhibition entry with A549 [4], in the experiment on A549 [6], with A549 [7], in the experiment on A549 [10], in the experiment with A549 [12] and in the experiment with A549 [14] was “Active” throughout.
`OC1(C(F)(F)F)CS/C(=N\c2ccccc2)N1Cc1ccco1` (stereo unspecified): the IC50 was determined as 21.6 µM with MDA-MB-231, 24.8 µM with HeLa, 8.26 µM in the experiment with A549 [1] and 29.4 µM with MCF7.
In the case of `OC1(C(F)(F)F)CS/C(=N\c2ccccc2)N1c1ccccc1` (stereo unspecified), the IC50 with MDA-MB-231 was 20.9 µM; in the experiment with HeLa, 29.4 µM; with A549 [1], 18.6 µM; with MCF7 it was 25 µM.
With `OC1(C(F)(F)F)CS/C(=N\c2ccccc2)N1Cc1cccs1` (stereo unspecified), the IC50 in the experiment with MDA-MB-231 was 23.1 µM; in the experiment on HeLa, 24.8 µM; in the experiment on A549 [1] it was 11.1 µM; in the experiment with MCF7, 33.8 µM.
For `OC1(C(F)(F)F)CS/C(=N\c2ccc(F)c(Cl)c2)N1c1ccccc1` (stereo unspecified), the half-maximal inhibitory concentration (IC50) came to 19 µM in the experiment on MDA-MB-231, 19.9 µM with HeLa, 16.8 µM in the experiment with A549 [1] and 22.9 µM in the experiment on MCF7.
Consider `COc1ccc(N2/C(=N/c3ccc(C(F)(F)F)cc3)SCC2(O)C(F)(F)F)cc1` (stereo unspecified), for which the IC50 in the experiment on MDA-MB-231 came out at 20.6 µM; in the experiment with HeLa, 16.8 µM; in the experiment with A549 [1] it was 15.2 µM; in the experiment on MCF7, 29.2 µM.
Take `OC1(C(F)(F)F)CS/C(=N\c2ccc(Cl)c(C(F)(F)F)c2)N1Cc1cccs1` (stereo unspecified): the result with A549 [2], in the experiment with A549 [5], in the experiment on A549 [9] and with A549 [15] was Active. Moreover, the Activity with A549 [3] amounted to 5.81%; in the experiment with A549 [8], 3.57%; in the experiment with A549 [11], 75.3%; in the experiment on A549 [13] it was 16.15%. For the same molecule, the IC50 was found to be 4.48 µM in the experiment with MDA-MB-231, 6.41 µM in the experiment with HeLa, 3.57 µM in the experiment on A549 [1] and 11.4 µM in the experiment with MCF7. Also, the inhibition result in the experiment on A549 [4], in the experiment on A549 [6], in the experiment on A549 [7], in the experiment on A549 [10], in the experiment on A549 [12] and in the experiment with A549 [14] was “Active” in each case.
Consider `OC1(C(F)(F)F)CS/C(=N\c2ccccc2)N1CCc1c[nH]c2ccccc12` (stereo unspecified), for which the IC50 in the experiment on MDA-MB-231 was found to be 20.6 µM; in the experiment on HeLa, 27.7 µM; with A549 [1], 10.6 µM; in the experiment on MCF7, 26.6 µM.
With `OC1(C(F)(F)F)CS/C(=N\c2ccc(Cl)c(C(F)(F)F)c2)N1CCc1ccccn1` (stereo unspecified), the half-maximal inhibitory concentration (IC50) came to 19.6 µM with MDA-MB-231, 7.12 µM in the experiment with HeLa, 6.02 µM in the experiment with A549 [1] and 11.3 µM with MCF7.
Turning to `OC1(C(F)(F)F)CS/C(=N\c2ccccc2)N1CCN1CCOCC1` (stereo unspecified), the IC50 was 23.8 µM in the experiment on MDA-MB-231, 26.1 µM in the experiment with HeLa, 21.2 µM in the experiment with A549 [1] and 37.4 µM in the experiment on MCF7.
For the molecule `OC1(C(F)(F)F)CS/C(=N\c2ccc(F)cc2)N1c1ccccc1` (stereo unspecified), the half-maximal inhibitory concentration (IC50) in the experiment on MDA-MB-231 was 19.6 µM; in the experiment on HeLa, 32.4 µM; with A549 [1], 17.1 µM; in the experiment on MCF7 it was 25.8 µM.
On to `OC1(C(F)(F)F)CS/C(=N\c2ccc(C(F)(F)F)cc2)N1CCc1ccccn1` (stereo unspecified), for which the IC50 came out at 20.9 µM in the experiment with MDA-MB-231, 21 µM in the experiment with HeLa, 12.8 µM with A549 [1] and 25.3 µM in the experiment with MCF7.
In the same order, the values of `OC1(C(F)(F)F)CS/C(=N\c2ccccc2)N1C1CCCCC1` (stereo unspecified) are 22.5 µM, 28.2 µM, 13.8 µM and 30.1 µM.
With `OC1(C(F)(F)F)CS/C(=N\c2ccc(C(F)(F)F)cc2)N1Cc1ccco1` (stereo unspecified), the IC50 with MDA-MB-231 turned out to be 21.7 µM; in the experiment on HeLa, 19.7 µM; in the experiment with A549 [1], 13.1 µM; in the experiment on MCF7, 25.1 µM.
Consider `OC1(C(F)(F)F)CS/C(=N\c2ccc(Cl)c(C(F)(F)F)c2)N1CCN1CCOCC1` (stereo unspecified), for which the result with A549 [2], in the experiment with A549 [5] and with A549 [9] was Active. For the same molecule, the Activity in the experiment with A549 [3] is given as 1.89%; in the experiment on A549 [8] it was 6.04%; in the experiment on A549 [11], 81.78%; in the experiment with A549 [13], 10.63%. The IC50 in the experiment on MDA-MB-231 was determined as 5.92 µM; with HeLa, 6.24 µM; in the experiment on A549 [1] it was 4.15 µM; with MCF7, 18.2 µM. The inhibition result in the experiment on A549 [4], in the experiment with A549 [6], with A549 [7], in the experiment on A549 [10], with A549 [12] and in the experiment with A549 [14] was “Active” in each case.
Turning to `OC1(C(F)(F)F)CS/C(=N\c2ccc(F)cc2)N1c1ccc(F)cc1` (stereo unspecified), the IC50 in the experiment with MDA-MB-231 turned out to be 21.3 µM; in the experiment with HeLa it was 30.7 µM; in the experiment on A549 [1] it was 14.8 µM; with MCF7 it was 34.1 µM.
`COc1ccc(N2/C(=N/c3ccc(F)cc3)SCC2(O)C(F)(F)F)cc1` (stereo unspecified): the 50% inhibitory concentration (IC50) with MDA-MB-231 stood at 6.64 µM; in the experiment with HeLa it was 6.98 µM; in the experiment on A549 [1] it was 4.58 µM; with MCF7, 28.7 µM.
For `OC1(C(F)(F)F)CS/C(=N\c2ccccc2)N1CCc1ccccn1` (stereo unspecified) the same measures were 21.5 µM, 28.5 µM, 20.1 µM and 25.9 µM.
With `CC(C)(C)N1/C(=N/c2ccc(Cl)c(C(F)(F)F)c2)SCC1(O)C(F)(F)F` (stereo unspecified), the result with A549 [2], with A549 [5] and in the experiment on A549 [9] was Active. The Activity with A549 [3] is 3.05%; in the experiment on A549 [8] it was 8.63%; in the experiment on A549 [11], 82.31%; in the experiment with A549 [13] it was 6.79%. Moreover, the concentration for half-maximal inhibition (IC50) in the experiment on MDA-MB-231 was 4.03 µM; in the experiment on HeLa it was 5.54 µM; with A549 [1] it was 3.26 µM; in the experiment with MCF7, 32.3 µM. The inhibition entry with A549 [4], with A549 [6], with A549 [7], in the experiment with A549 [10], in the experiment on A549 [12] and in the experiment with A549 [14] was “Active” each time.

Source of the values: ChEMBL document CHEMBL3817727, “Fluorinated thiazolidinols cause cell death in A549 lung cancer cells via PI3K/AKT/mTOR and MAPK/ERK signalling pathways” (Medchemcomm, 2016).
